Assay results: paper PMC9650428, “Mutagenesis and functional analysis of SotB: A multidrug transporter of the major facilitator superfamily from Escherichia coli” (Frontiers in Microbiology, 2022)
Positions count from the first letter of the chain named.

How the values were obtained:
[1] = molecular target: T1, SotB (Escherichia coli, UniProt P31122); experiment: SPR affinity assay, wild-type SotB; format: binding; conditions: SPR, wild-type SotB immobilised, one-to-one model; read-out: KD (equilibrium dissociation constant), binding affinity with SotB
T1 construct: The full-length sotB and lapC genes from the E. coli MG1655 genome were subcloned into the cloning vector pET28a; 8xHis (C); made in house; host or cells: E. coli C43(DE3)
T1 sequence (P31122 whole entry): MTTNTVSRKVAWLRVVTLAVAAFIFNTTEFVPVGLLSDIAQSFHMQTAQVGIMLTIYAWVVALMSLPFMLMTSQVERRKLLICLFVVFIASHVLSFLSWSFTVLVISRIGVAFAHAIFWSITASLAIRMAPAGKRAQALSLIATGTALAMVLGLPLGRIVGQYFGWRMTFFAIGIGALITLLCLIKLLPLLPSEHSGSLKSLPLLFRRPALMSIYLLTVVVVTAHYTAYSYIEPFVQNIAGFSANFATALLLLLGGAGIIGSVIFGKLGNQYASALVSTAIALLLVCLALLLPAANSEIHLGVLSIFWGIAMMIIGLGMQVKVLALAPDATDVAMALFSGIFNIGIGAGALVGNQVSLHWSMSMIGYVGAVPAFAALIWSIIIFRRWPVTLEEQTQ
Description: (§1) The instrument used in surface plasmon resonance (SPR) affinity assays was OpenSPR (Nicoya, Canada) and the chip used was COOH sensor chip (Nicoya, Canada). SotB and its variants were as ligands. IPTG, L-arabinose, D-xylose, D-glucose, D-fructose, and D-mannose were as small molecules. Using HSB-EP buffer (10 mM HEPES, 150 mM NaCl, 3 mM EDTA, 0.005% Tween-20, pH7.4) as test buffer and setting flow rate 150 μl/min after installed COOH chip according to OpenSPRTM instrument standard operating procedure. After the signal baseline was reached, loading 200 μl 80% isopropyl alcohol and ran for 10 s to drain bubbles. After reaching baseline, the sample ring was rinsed with HSB-EP buffer and emptied with air. After the signal reached the baseline, loading 200 μl EDC (400 mM, Sigma)/NHS (100 mM, Sigma; 1:1) solution with a flow rate 20 μl/min for 4 min. Then, loading 200 μl ligand (SotB/SotB variants) diluted by the activation buffer (sodium acetate, 10 mM, pH3.5) and ran for 4 min (20 μl/min). Then the sample ring was rinsed with HSB-EP buffer and emptied with air. Loading 200 μl 1 M ethanolamine (Sigma) blocking solution (20 μl/min, 4 min), rinsed the sample ring with HSB-EP buffer, and emptied the sample ring with air. Observing baseline for 5 min to ensure stability. The small molecules were diluted with PBS buffer (2 mM of KH2PO4, 10 mM of Na2HPO4, 2.7 mM of KCl, and 137 mM of NaCl at pH 7.4), and the concentration was shown in the experimental results. The flow rate for small molecules was performed at 20 μl/min. The binding time of small molecule and ligand was 240 s, and the dissociation was 240 s. The analysis software used for the experimental results was TraceDrawer, and the analysis method was one-to-one analysis model.

[2] = molecular target: T2, SotB E29A (Escherichia coli, UniProt P31122, E29A); experiment: SPR affinity assay, SotB variant E29A; conditions: read-out: KD, binding affinity with E29A
T2 construct: The full-length sotB and lapC genes from the E. coli MG1655 genome were subcloned into the cloning vector pET28a; 8xHis (C); made in house; host or cells: E. coli C43(DE3)
T2 sequence (P31122 1-396 E29A): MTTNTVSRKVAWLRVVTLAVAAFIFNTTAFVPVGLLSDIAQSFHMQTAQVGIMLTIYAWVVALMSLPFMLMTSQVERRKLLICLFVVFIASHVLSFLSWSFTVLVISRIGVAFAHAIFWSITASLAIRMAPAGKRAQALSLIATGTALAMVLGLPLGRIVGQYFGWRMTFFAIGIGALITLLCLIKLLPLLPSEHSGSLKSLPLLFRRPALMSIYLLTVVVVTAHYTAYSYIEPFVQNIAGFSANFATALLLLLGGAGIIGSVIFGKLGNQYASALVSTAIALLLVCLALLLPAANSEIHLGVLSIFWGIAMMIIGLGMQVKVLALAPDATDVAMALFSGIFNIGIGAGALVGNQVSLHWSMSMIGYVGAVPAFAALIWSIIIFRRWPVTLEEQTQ
Description: as §1, with “The small molecules were diluted with PBS buffer (2 mM of KH2PO4, 10 mM of Na2HPO4, 2.7 mM of KCl, and 137 mM of NaCl at pH 7.4), and the concentration was shown in the experimental results. The flow rate for small molecules was performed at 20 μl/min. The binding time of small molecule and ligand was 240 s, and the dissociation was 240 s. The analysis software used for the experimental results was TraceDrawer, and the analysis method was one-to-one analysis model.” left out

[3] = system: intact E. coli MG1655 strain; experiment: Growth curve (L-arabinose inhibition / D-xylose competition) assay, intact MG1655; format: cell-based, Escherichia coli
From the text: In the process of sotB gene knockout, two plasmids were introduced into E. coli MG1655 strain: the plasmid pEcCas expressing Cas9 protein (kanamycin resistance) and the plasmid pEcgRNA/sotB expressing related gRNA (spectinomycin resistance). The pEcCas plasmid was successfully eliminated in this study. […] Thus, the sotB-deletion strain has resistance to spectinomycin. In order to carry out the related L-arabinose inhibition assay more strictly, the same plasmid (pEcgRNA/sotB) was then transformed into intact E. coli MG1655 cells, and the growth conditions of the two strains were measured as follows: The E. coli MG1655 cells (intact cells and sotB-deletion cells) were grown in liquid LB medium containing spectinomycin (50 μg/ml) at 37°C for overnight. The cells were then diluted to an OD600 value of 0.8 with liquid LB medium containing spectinomycin (50 μg/ml). Then, the cells were further diluted 1,000 times with liquid LB medium containing spectinomycin (50 μg/ml). The diluted cells were added to a 96-well plate (200 μl/well). Then, L-arabinose was added with final concentrations of 0 μM, 10 μM, 100 μM, 1 mM, 10 mM, and 100 mM, respectively. The 96-well plate was incubated at 37°C, and the OD600 value was measured every 1 h with a microplate reader. For the competition assay, the intact MG1655 cells diluted 1,000 times were divided into two parts and then added into 96-well plate (200 μl/well). One part was directly added with D-xylose at a final concentration of 0, 1, and 10 mM, respectively; the other part was first added with L-arabinose at a final concentration of 10 mM, then D-xylose was added with final concentrations of 0, 1, and 10 mM, respectively. The method of growth curve measurement is the same as above. All the experiments were repeated at least three times.

[4] = molecular target: T3, SotB H115A (Escherichia coli, UniProt P31122, H115A); experiment: SPR affinity assay, SotB variant H115A; format: binding
T3 construct: The full-length sotB and lapC genes from the E. coli MG1655 genome were subcloned into the cloning vector pET28a; 8xHis (C); made in house; host or cells: E. coli C43(DE3)
T3 sequence (P31122 1-396 H115A): T2 sequence (P31122 1-396 E29A) with A29E, H115A
Description: as §1

SMILES: OC1OC[C@H](O)[C@H](O)[C@H]1O (mixture of isomers) [L-arabinose]
- Kd [1]: 4.1 mM
- Kd [2]: 5.1 mM
- Growth of intact MG1655 compared to sotB-deletion MG1655 ([3]; in the presence of 1 mM L-arabinose): grew better
- Effect on growth (OD600 growth curve) ([3]; intact MG1655, 10 mM final concentration): significantly inhibit
- Effect on growth (OD600 growth curve) ([3]; intact MG1655, 100 mM final concentration): significantly inhibit
- Binding affinity of H115A, fold lower than the wild-type protein ([4]; H115A vs wild-type SotB): 3.2 fold
- Kd ([4]; SotB variant H115A, read-out: KD, binding affinity with H115A): 13.3 mM
